This note sets out measurements from patent US20120094964A1, “SULFAMOYL BENZOIC ACID DERIVATIVES AS TRPM8 ANTAGONISTS” (priority 2009, published 2012).

In the assay the target is T1, human TRPM8 (Homo sapiens, UniProt Q7Z2W7).
T1 construct: expressed in transfected cells
T1 sequence (Q7Z2W7 whole entry): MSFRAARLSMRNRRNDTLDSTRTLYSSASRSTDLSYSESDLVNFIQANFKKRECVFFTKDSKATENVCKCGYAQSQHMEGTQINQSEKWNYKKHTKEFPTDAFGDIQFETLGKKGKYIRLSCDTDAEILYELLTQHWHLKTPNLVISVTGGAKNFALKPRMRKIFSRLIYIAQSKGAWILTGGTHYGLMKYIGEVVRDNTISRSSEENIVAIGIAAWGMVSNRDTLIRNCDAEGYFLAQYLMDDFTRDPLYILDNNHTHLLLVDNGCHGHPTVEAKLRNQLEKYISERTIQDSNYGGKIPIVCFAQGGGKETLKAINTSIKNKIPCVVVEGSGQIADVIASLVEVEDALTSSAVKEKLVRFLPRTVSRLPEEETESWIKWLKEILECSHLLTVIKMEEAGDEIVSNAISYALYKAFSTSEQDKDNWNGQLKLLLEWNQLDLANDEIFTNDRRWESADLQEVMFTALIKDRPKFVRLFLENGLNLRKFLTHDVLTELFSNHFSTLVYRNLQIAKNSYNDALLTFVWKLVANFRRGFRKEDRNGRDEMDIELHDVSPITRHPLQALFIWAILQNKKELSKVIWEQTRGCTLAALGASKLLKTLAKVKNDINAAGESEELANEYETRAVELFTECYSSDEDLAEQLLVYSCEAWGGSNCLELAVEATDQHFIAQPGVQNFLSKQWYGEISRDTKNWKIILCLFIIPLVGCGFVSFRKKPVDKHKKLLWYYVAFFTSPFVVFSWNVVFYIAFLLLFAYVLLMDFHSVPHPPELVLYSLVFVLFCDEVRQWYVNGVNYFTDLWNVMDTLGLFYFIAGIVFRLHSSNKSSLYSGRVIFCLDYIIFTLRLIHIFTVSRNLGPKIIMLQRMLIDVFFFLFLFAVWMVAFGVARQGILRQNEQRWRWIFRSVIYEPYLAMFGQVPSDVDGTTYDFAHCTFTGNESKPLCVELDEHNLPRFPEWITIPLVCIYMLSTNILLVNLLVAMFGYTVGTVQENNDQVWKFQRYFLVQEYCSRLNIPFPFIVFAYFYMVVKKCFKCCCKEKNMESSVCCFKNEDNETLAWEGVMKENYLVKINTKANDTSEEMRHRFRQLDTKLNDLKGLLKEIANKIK
Briefly: In Vitro human TRPM8 Functional Assay (intracellular Ca2+, Fluo4, FDSS, menthol activation). It is filed as cell-based. The settings on record: HEK293 cells stably expressing human TRPM8; activation with L-(-)-Menthol; 11-point dose-response. In a few lines:
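Fluo4-loaded HEK293 cells stably expressing TRPM8 were preincubated with compound for 5 min at room temperature, then stimulated with L-menthol (20 μl of 90 μM stock) while fluorescence was read. IC50 values come from 11-point curves fitted to the mean of duplicate wells.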
Take `COc1ccc(N(C(C)c2ccccc2OC)S(=O)(=O)c2ccc(C)c(Cl)c2)cc1` (centres unmarked) [Example 104, 3-Chloro-N-(4-methoxyphenyl)-N-(1-(2-methoxy-phenyl)ethyl)-4-methyl benzenesulfonamide]: the 50% inhibitory concentration (IC50) – broadly, the concentration needed to halve the response being measured – was 10 to 30 µM.
Turning to `O=C(O)c1ccc(S(=O)(=O)N(Cc2ccccc2)c2ncc(C(F)(F)F)cc2Cl)c(Cl)c1` [Example 181, 4-(N-Benzyl-N-(3-chloro-5-(trifluoromethyl)pyridin-2-yl)sulfamoyl)-3-chlorobenzoic acid], the IC50 is less than 1 µM.
As for `COc1ccc(N(C(C)c2ccccc2F)S(=O)(=O)c2ccc(F)cc2)cc1` (centres unmarked) [Example 88, 4-Fluoro-N-(1-(2-fluorophenyl)ethyl)-N-(4-methoxyphenyl)benzene-sulfonamide], the figure is less than 1 µM; as for `O=C(O)Cc1ccc(S(=O)(=O)N(Cc2ccccc2)c2ncc(C(F)(F)F)cc2Cl)cc1` [Example 147, 2-(4-(N-Benzyl-N-(3-chloro-5-(trifluoromethyl)pyridin-2-yl)sulfamoyl)phenyl)acetic acid], less than 1 µM.
Then `COc1cccc(N(C(C)c2ccccc2C)S(=O)(=O)c2ccc(C)c(Cl)c2)c1` (centres unmarked) [Example 95, 3-Chloro-N-(3-methoxy-phenyl)-4-methyl-N-(1-o-tolylethyl)benzene-sulfonamide], with 10 to 30 µM.
